Starred links: 1 amine or outer side, 2 acyl side, 3 side chain; linkers in the order of their positions; H or OH if unused. Non-standard residues stand in square brackets, D forms with d. Residues, ends and D or L forms follow the SMILES beside them. Groups on a side chain read outwards from the residue. N(2S-amino-4-Me-pentyl)Phe = CC(C)C[C@@H](CN([C@@H](Cc1ccccc1)C(=O)[*:2])[*:1])N[*:3]; Nle = CCCC[C@H](N)C(=O)O
How the values were obtained:
Experiment in all cases: Protease Inhibition Assay
Conditions in all cases: pH 5; 22 °C
[1] = molecular target: T1, Dimer of Gag-Pol polyprotein [501-599,Q508K,L534I,L564I,C568A,C596A,G574S] (Human immunodeficiency virus 1, UniProt P03367, C568A/C596A/G574S/L534I/L564I/Q508K)
T1 construct: 501-599
Text: (§1) The Ki values were obtained from the IC50 values estimated from an inhibitor dose-response curve with the spectroscopic assay and the chromogenic substrate.

[2] = molecular target: T2, Dimer of Gag-Pol polyprotein [501-599,Q508K,L534I,L564I,C568A,C596A,I551V] (Human immunodeficiency virus 1, UniProt P03367, C568A/C596A/I551V/L534I/L564I/Q508K)
T2 construct: 501-599
Text: as §1

[3] = molecular target: T3, Dimer of Gag-Pol polyprotein [501-599,Q508K,L534I,L564I,C568A,C596A,L525I] (Human immunodeficiency virus 1, UniProt P03367, C568A/C596A/L525I/L534I/L564I/Q508K)
T3 construct: 501-599
Text: as §1

[4] = molecular target: T4, Dimer of Gag-Pol polyprotein [501-599,Q508K,L534I,L564I,C568A,C596A] (Human immunodeficiency virus 1, UniProt P03367, C568A/C596A/L534I/L564I/Q508K)
T4 construct: 501-599
Text: as §1

CCCC[C@H](NC(=O)[C@H](C)NC(=O)[C@H](CCC(=O)O)NC(=O)[C@H](Cc1ccccc1)NC[C@H](CC(C)C)NC(=O)[C@@H](NC(=O)[C@@H](N)CCCNC(=N)N)C(C)C)C(N)=O [N-1270] (H-[N(2S-amino-4-Me-pentyl)Phe]([Val-Arg])EA[Nle]-NH2)
Ki [1]: 330 nM | Ki [2]: 230 nM | Ki [3]: 3.5 nM | Ki [4]: 75 nM
